{"source": "patent US11919965B2", "about": "“Methods of treating multiple myeloma with bispecific anti-BCMA x anti-CD3 antibodies” (Regeneron Pharmaceuticals, Inc., priority 2019, dated 2024)", "key": {"[1]": {"test_system": "Jurkat/NFATLuc.3C7 reporter cells with Daudi cells (BCMA positive)", "assay": "Jurkat/NFATLuc reporter bioassay (T-cell activation)", "type": "cell-based, human", "description": "(§1) Activity of the anti-BCMA×anti-CD3 bispecific antibodies were assessed in a Jurkat/NFATLuc reporter bioassay utilizing several cell lines with varying levels of BCMA surface expression. The Jurkat cells were engineered to express an NFAT-luciferase reporter (Jurkat/NFATLuc.3C7), and 50,000 Jurkat reporter cells were combined with 50,000 BCMA positive (Daudi, MM1-S, NCI-H929, OPM-2, RPMI-8226, MOLP-8, or Raji) or BCMA negative (HEK293) cells in Thermo Nunclon delta 96 well white microwell plates (Thermo Scientific, Cat #136102) in 50 ul of assay media (RPMI media with 10% FBS and 1% P/S/G). Three-fold serial dilutions of the BCMA×CD3 bispecific antibodies (mAb25441D or mAb25442D), or a bivalent anti-BCMA antibody (mAb21581) were immediately added in 50 uL of assay buffer. The plates were gently agitated and incubated in a 37° C., 5% CO2 incubator for 4-6 hours. NFAT-Luciferase activity was determined using Promega One-Glo (Cat #E6130) and a Perkin Elmer Envision plate reader. RLU were plotted in GraphPad Prism using a four-parameter logistic equation over a 12-point response curve to calculate EC50 values. The no antibody treatment condition for each dose-response curve is also included in the analysis as a continuation of the three-fold serial dilution and is represented as the lowest dose. The signal to noise (S:N) is determined by taking the ratio of the highest RLU on the curve to the lowest."}, "[2]": {"test_system": "Jurkat/NFATLuc.3C7 reporter cells with MOLP-8 cells (BCMA positive)", "assay": "Jurkat/NFATLuc reporter bioassay (T-cell activation)", "type": "cell-based, human", "description": "as §1"}, "[3]": {"test_system": "BCMA+ MOLP-8-luciferase tumors", "assay": "Xenogenic tumor model, i.v. MOLP-8-luciferase in PBMC-engrafted NSG mice, bioluminescence (Example 14)", "type": "in vivo, mouse", "conditions": "4 mg/kg", "description": "To determine the in vivo efficacy of anti-BCMA×anti-CD3 bispecific antibodies (Abs), a xenogenic tumor study was performed. On day −11, immunodeficient NOD.Cg-Prkdc^scidII2rg^tm1Wjl/SzJ (NSG) mice were intraperitoneally injected with 4×10^6 human peripheral blood mononuclear cells (PBMC) from a normal, healthy donor. On day 0, the mice were intravenously administered 2×10^6 BCMA^+ MOLP-8 human multiple myeloma tumor cells that were engineered to also express firefly luciferase (MOLP-8-luciferase cells). […] The mice were administered these Abs twice more on days 3 and 7, for a total of three doses. Tumor growth was assessed over 48 days by measuring tumor bioluminescence (BLI) in anesthetized animals. As a positive control, a group of mice (n=5) was given only MOLP-8-luciferase cells, but not PBMC or antibody.\nImplantation and measurement of xenogenic tumors: On day −11, immunodeficient NOD.Cg-Prkdc^scidII2rg^tm1Wjl/SzJ (NSG) mice were intraperitoneally injected with 5×10^6 human PBMC from a normal, healthy donor. On day 0, the mice were intravenously administered 2×10^6 BCMA^+ MOLP-8-luciferase cells. […] The mice were administered these Abs twice more on days 3 and 7, for a total of three doses. Tumor growth was assessed over 48 days by measuring tumor BLI in anesthetized animals. As a positive control, a group of mice (n=5) was given only MOLP-8-luciferase cells, but not PBMC or antibody.\nMeasurement of xenogenic tumor growth: BLI imaging was used to measure tumor burden. Mice were injected IP with 150 mg/kg of the luciferase substrate D-luciferin suspended in PBS. Five minutes after this injection, BLI imaging of the mice was performed under isoflurane anesthesia using the Xenogen IVIS system. Image acquisition was carried out with the field of view at D, subject height of 1.5 cm, and medium binning level with automatic exposure time determined by the Living Image Software. BLI signals were extracted using Living Image software: regions of interest were drawn around each tumor mass and photon intensities were recorded as p/s/cm2/sr."}, "[4]": {"test_system": "primary cynomolgus monkey CD138+ plasma cells", "assay": "Autologous T cell-mediated killing of plasma cells and T cell activation (% CD25 upregulation)", "type": "cell-based", "description": "(§2) The specific killing of enriched CD138^+ human or cynomolgus monkey plasma cells by unstimulated autologous T cells was assessed by flow cytometry. Human or cynomolgus bone marrow aspirates and blood were provided within 24 hours of harvest. CD138^+ plasma cells were enriched from bone marrow by positive selection using the EasySep Human CD138^+ Positive Selection kit according to the manufacturer's instructions. PBMC from whole blood were isolated by density separation. PBMC were labeled with 1 μM of VYBRANT™ CFDA-SE fluorescent tracking dye. […] At the end of the culture, surviving CD138^+ plasma cells were analyzed by flow cytometry, utilizing fixable LIVE/DEAD dye and plasma cell specific cell surface markers. Percent viability was normalized to control condition (plasma cells in the presence of PBMC only). T cell activation was assessed by flow cytometry. Activation is reported as the percentage of CD2^+/CD4^+ or CD2^+/CD8^+/CD16^− T cells expressing CD25. Percent T cell activation was normalized to control condition (plasma cells in the presence of PBMC only)."}, "[5]": {"test_system": "primary human CD138+ plasma cells", "assay": "Autologous T cell-mediated killing of plasma cells and T cell activation (% CD25 upregulation)", "type": "cell-based", "conditions": "for EC50: read-out: T Cell Activation (% CD25 Upregulation) CD8+ T cells EC50", "description": "as §2"}, "[6]": {"test_system": "Jurkat/NFATLuc.3C7 reporter cells with NCI-H929 cells (BCMA positive)", "assay": "Jurkat/NFATLuc reporter bioassay (T-cell activation)", "type": "cell-based, human", "description": "as §1"}}, "note": "Read-outs that look alike come from different tables or passages of the source."}
{"substance": "REGN5459: anti-BCMA×anti-CD3 bispecific antibody: mAb21581 BCMA heavy chain, mAb7221G20 CD3 heavy chain and common light chain; SEQ ID NOs 126, 128, 129", "values": [{"measurement": "S:N (highest RLU to lowest)", "setting": "[1]", "result": 25}, {"measurement": "S:N (highest RLU to lowest)", "setting": "[2]", "result": 31}]}
{"substance": "REGN5458: anti-BCMA×anti-CD3 bispecific antibody: mAb21581 BCMA heavy chain, mAb7221G CD3 heavy chain and common light chain; SEQ ID NOs 126, 127, 129", "values": [{"measurement": "Radiance [p/s/cm2^2/sr] 8 days post-implantation (mean ± SEM)", "setting": "[3]", "result": "5.66E+05 ± 1.97E+04", "unit": "p/s/cm2^2/sr"}, {"measurement": "Radiance [p/s/cm2^2/sr] 22 days post-implantation (mean ± SEM)", "setting": "[3]", "result": "1.08E+06 ± 1.71E+05", "unit": "p/s/cm2^2/sr"}, {"measurement": "Radiance [p/s/cm2^2/sr] 24 days post-implantation (mean ± SEM)", "setting": "[3]", "result": "1.02E+06 ± 1.99E+05", "unit": "p/s/cm2^2/sr"}, {"measurement": "Radiance [p/s/cm2^2/sr] 28 days post-implantation (mean ± SEM)", "setting": "[3]", "result": "3.56E+06 ± 6.34E+05", "unit": "p/s/cm2^2/sr"}, {"measurement": "Radiance [p/s/cm2^2/sr] 30 days post-implantation (mean ± SEM)", "setting": "[3]", "result": "6.92E+06 ± 1.40E+06", "unit": "p/s/cm2^2/sr"}, {"measurement": "Radiance [p/s/cm2^2/sr] 34 days post-implantation (mean ± SEM)", "setting": "[3]", "result": "2.65E+07 ± 1.36E+07", "unit": "p/s/cm2^2/sr"}, {"measurement": "Radiance [p/s/cm2^2/sr] 37 days post-implantation (mean ± SEM)", "setting": "[3]", "result": "4.52E+07 ± 1.40E+07", "unit": "p/s/cm2^2/sr"}, {"measurement": "tumor growth", "setting": "[3]; three doses", "result": "delayed the growth"}, {"measurement": "T Cell Activation (% CD25 Upregulation) CD8+ T cells % Activation", "setting": "[4]; Cynomolgus Monkey Donor 1 plasma cells, autologous T cells, maximum", "result": 12, "unit": "%"}, {"measurement": "EC50", "setting": "[4]; Cynomolgus Monkey Donor 1 plasma cells, autologous T cells, read-out: T Cell Activation (% CD25 Upregulation) CD8+ T cells EC50", "result": 22.4, "unit": "nM"}, {"measurement": "T Cell Activation (% CD25 Upregulation) CD4+ T cells % Activation", "setting": "[4]; Cynomolgus Monkey Donor 2 plasma cells, autologous T cells, maximum", "result": 16, "unit": "%"}, {"measurement": "EC50", "setting": "[4]; Cynomolgus Monkey Donor 2 plasma cells, autologous T cells, read-out: T Cell Activation (% CD25 Upregulation) CD4+ T cells EC50", "result": "~18.1", "unit": "nM"}, {"measurement": "maximum percent T cell activation, CD8+ T cells", "setting": "[4]; donor 1", "result": 12, "unit": "%"}, {"measurement": "EC50", "setting": "[4]; donor 1, read-out: EC50, CD4+ T cell activation", "result": 28.1, "unit": "nM"}, {"measurement": "EC50", "setting": "[4]; donor 1, read-out: EC50, CD8+ T cell activation", "result": 22.4, "unit": "nM"}, {"measurement": "maximum percent T cell activation, CD4+ T cells", "setting": "[4]; donor 2", "result": 16, "unit": "%"}, {"measurement": "EC50", "setting": "[4]; donor 2, read-out: EC50, CD4+ T cell activation", "result": 18.1, "unit": "nM"}, {"measurement": "EC50", "setting": "[4]; donor 2, read-out: EC50, CD8+ T cell activation", "result": 76.7, "unit": "nM"}, {"measurement": "EC50", "setting": "[5]; Human Donor 1 plasma cells, autologous primary human T cells", "result": 0.214, "unit": "nM"}, {"measurement": "T Cell Activation (% CD25 Upregulation) CD8+ T cells % Activation", "setting": "[5]; Human Donor 2 plasma cells, autologous primary human T cells, maximum", "result": 36, "unit": "%"}, {"measurement": "EC50", "setting": "[5]; Human Donor 2 plasma cells, autologous primary human T cells", "result": 0.86, "unit": "nM"}, {"measurement": "maximum percent CD8+ T cell activation", "setting": "[5]; donor 2", "result": 36, "unit": "%"}, {"measurement": "S:N (highest RLU to lowest)", "setting": "[6]", "result": 39}]}
